Target: FFA1 (GPR40) (Homo sapiens, UniProt O14842)
Assay: aequorin calcium luminescence assay, CHO cells
Assay type: cell-based

Sequence of FFA1 (GPR40) (O14842 whole entry): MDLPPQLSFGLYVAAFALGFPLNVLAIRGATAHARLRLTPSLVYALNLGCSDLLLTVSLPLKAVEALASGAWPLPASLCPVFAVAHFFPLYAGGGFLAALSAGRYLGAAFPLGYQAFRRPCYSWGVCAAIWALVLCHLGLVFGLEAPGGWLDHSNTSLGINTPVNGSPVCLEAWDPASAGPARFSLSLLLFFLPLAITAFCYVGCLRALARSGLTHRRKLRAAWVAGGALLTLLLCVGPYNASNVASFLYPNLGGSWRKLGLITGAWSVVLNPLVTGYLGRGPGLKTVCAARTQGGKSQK

- EC50: 40 µM
SMILES: CC/C=C\C/C=C\C/C=C\C/C=C\C/C=C\C/C=C\CCC(=O)O [DHA]
